In patent US20180368410A1, “MICROBIOCIDAL OXADIAZOLE DERIVATIVES” (SYNGENTA PARTICIPATIONS AG, priority 2015, published 2018):

Key:
[1] = system: Puccinia recondita f. Sp. Tritici; assay: Puccinia recondita f. sp. tritici / wheat / leaf disc preventative (brown rust); assay type: in vivo, Puccinia recondita f. sp. tritici on wheat cv. Kanzler; settings: foliar, 200 ppm in the applied formulation, inoculated 1 day after application, assessed 7 to 9 days after application, vs untreated control leaf disks, read-out: disease control
Description: Leaf disks or leaf segments of various plant species are cut from plants grown in a greenhouse. The cut leaf disks or segments are placed in multiwell plates (24-well format) onto water agar. The leaf disks are sprayed with a test solution before (preventative) or after (curative) inoculation. Compounds to be tested are prepared as DMSO solutions (max. 10 mg/ml) which are diluted to the appropriate concentration with 0.025% Tween20 just before spraying. The inoculated leaf disks or segments are incubated under defined conditions (temperature, relative humidity, light, etc.) according to the respective test system. A single evaluation of disease level is carried out 3 to 14 days after inoculation, depending on the pathosystem. Percent disease control relative to the untreated check leaf disks or segments is then calculated. Wheat leaf segments cv. Kanzler were placed on agar in multiwell plates (24-well format) and sprayed with the formulated test compound diluted in water. The leaf disks were inoculated with a spore suspension of the fungus 1 day after application. The inoculated leaf segments were incubated at 19′C and 75% relative humidity (rh) under a light regime of 12 hours light/12 hours darkness in a climate cabinet and the activity of a compound was assessed as percent disease control compared to untreated when an appropriate level of disease damage appears in untreated check leaf segments (7 to 9 days after application). The following compounds at 200 ppm in the applied formulation give at least 80% disease control in this test when compared to untreated control leaf disks under the same conditions, which show extensive disease development.

[2] = system: Glomerella Lacenarium (Colletotrichum lacenarium); assay: Glomerella lagenarium (Colletotrichum lagenarium) liquid culture / cucumber / preventative (anthracnose); assay type: cell-based; settings: 20 ppm in the applied formulation, liquid culture in PDB, 24° C., inhibition of growth measured photometrically 3 to 4 days after application, vs untreated control, read-out: disease control
Description: Mycelia fragments or conidia suspensions of a fungus prepared either freshly from liquid cultures of the fungus or from cryogenic storage, are directly mixed into nutrient broth. DMSO solutions of the test compound (max. 10 mg/ml) are diluted with 0.025% Tween20 by a factor of 50 and 10 μl of this solution is pipetted into a microtiter plate (96-well format). The nutrient broth containing the fungal spores/mycelia fragments is then added to give an end concentration of the tested compound. The test plates are incubated in the dark at 24° C. and 96% relative humidity. The inhibition of fungal growth is determined photometrically after 2 to 7 days, depending on the pathosystem, and percent antifungal activity relative to the untreated check is calculated.
Conidia of the fungus from cryogenic storage are directly mixed into nutrient broth (PDB—potato dextrose broth). After placing a (DMSO) solution of test compound into a microtiter plate (96-well format), the nutrient broth containing the fungal spores is added. The test plates are incubated at 24° C. and the inhibition of growth is measured photometrically 3 to 4 days after application.
The following compounds at 20 ppm in the applied formulation give at least 80% disease control in this test when compared to untreated control under the same conditions, which show extensive disease development.

Row | SMILES | pest or weed control at 200 ppm [1] | inhibition of growth at 20 ppm [2]
1 | COc1ccc(C2(C(=O)NCc3ccc(-c4noc(C(F)(F)F)n4)cc3)CC2)cc1 [Compound 1.38, 1-(4-methoxyphenyl)-N-[[4-[5-(trifluoromethyl)-1,2,4-oxadiazol-3-yl]phenyl]methyl] cyclopropanecarboxamide] | ≥ 80% | ≥ 80%
2 | O=C(NCc1ccc(-c2noc(C(F)(F)F)n2)cc1)c1c(Cl)cccc1Cl [Compound 1.42, 2,6-dichloro-N-[[4-[5-(trifluoromethyl)-1,2,4-oxadiazol-3-yl]phenyl]methyl]benzamide] | ≥ 80% | –
3 | O=C(NCc1ccc(-c2noc(C(F)(F)F)n2)cc1)c1ccccc1C(F)(F)F [Compound 1.43, 2-(trifluoromethyl)-N-[[4-[5-(trifluoromethyl)-1,2,4-oxadiazol-3-yl]phenyl]methyl]benzamide] | ≥ 80% | –
4 | O=C(NCc1ccc(-c2noc(C(F)(F)F)n2)cc1F)c1ccccc1Cl [Compound 1.48, 2-chloro-N-[[2-fluoro-4-[5-(trifluoromethyl)-1,2,4-oxadiazol-3-yl]phenyl]methyl]benzamide] | ≥ 80% | ≥ 80%
5 | COc1cc(-c2noc(C(F)(F)F)n2)ccc1CNC(=O)C1CCCO1 (centres unmarked) [Compound 1.51, N-[[2-methoxy-4-[5-(trifluoromethyl)-1,2,4-oxadiazol-3-yl]phenyl]methyl]tetrahydrofuran-2-carboxamide] | – | ≥ 80%
6 | O=C(NCc1ccc(-c2noc(C(F)(F)F)n2)cc1C(F)(F)F)C1CCCO1 (centres unmarked) [Compound 1.52, N-[[2-(trifluoromethyl)-4-[5-(trifluoromethyl)-1,2,4-oxadiazol-3-yl]phenyl]methyl]tetrahydrofuran-2-carboxamide] | – | ≥ 80%
7 | O=C(CC1CC1)NCc1ccc(-c2noc(C(F)(F)F)n2)cc1Cl [Compound 1.74, N-[[2-chloro-4-[5-(trifluoromethyl)-1,2,4-oxadiazol-3-yl]phenyl]methyl]-2-cyclopropyl-acetamide] | – | ≥ 80%
8 | CC1(C(=O)NCc2ccc(-c3noc(C(F)(F)F)n3)cc2Cl)CC1 [Compound 1.79, N-[[2-chloro-4-[5-(trifluoromethyl)-1,2,4-oxadiazol-3-yl]phenyl]methyl]-1-methyl-cyclopropanecarboxamide] | – | ≥ 80%
9 | O=C(NCc1ccc(-c2noc(C(F)(F)F)n2)cc1Cl)C1CC1 [Compound 1.81, N-[[2-chloro-4-[5-(trifluoromethyl)-1,2,4-oxadiazol-3-yl]phenyl]methyl] cyclopropanecarboxamide] | – | ≥ 80%
10 | O=C(NCc1ccc(-c2noc(C(F)(F)F)n2)cc1Cl)C1CCOC1 (centres unmarked) [Compound 1.82, N-[[2-chloro-4-[5-(trifluoromethyl)-1,2,4-oxadiazol-3-yl]phenyl]methyl] tetrahydrofuran-3-carboxamide] | – | ≥ 80%
11 | CC1(C(=O)NCc2ccc(-c3noc(C(F)(F)F)n3)cc2Cl)COC1 [Compound 1.84, N-[[2-chloro-4-[5-(trifluoromethyl)-1,2,4-oxadiazol-3-yl]phenyl]methyl]-3-methyl-oxetane-3-carboxamide] | ≥ 80% | ≥ 80%
